Measured values taken from publication PMC8842277, “Highly Antiproliferative Latonduine and Indolo[2,3-c]quinoline Derivatives: Complex Formation with Copper(II) Markedly Changes the Kinase Inhibitory Profile” (Journal of Medicinal Chemistry, 2022).

Tests used:
Colo320 cells = assay: Apoptosis assay, Annexin-V-FITC/PI flow cytometry; conditions: 3 h induction
Protocol: An apoptosis assay was performed by flow cytometry via the analysis of multidrug-resistant Colo320 cells stained with Annexin-V-FITC and propidium iodide (PI).
Colo320 cells were treated at the indicated concentration of the compounds. The dual parametric dot plots combining Annexin-V (FL1) and PI (FL3) fluorescence show the viable cell population in the lower left quadrant Annexin-V–/PI– (Q4), the early apoptotic cells in the lower right quadrant Annexin-V+/PI– (Q3), and the late apoptotic and necrotic cells in the upper right quadrant Annexin-V+/PI+ (Q2).
The assay was carried out for selected compounds using an Annexin V-FITC Apoptosis Detection Kit (cat. no. APOAF-50TST) from Sigma according to the manufacturer’s instructions. The concentration of the Colo320 cell suspension was adjusted to approximately 0.5 × 10^6 cells/mL in an RPMI 1640 medium, and the cell suspension was distributed in 1 mL of aliquots into a 24-well plate and then incubated overnight at 37 °C and 5% CO2. On the following day, the medium was removed and replaced by 1 mL of RPMI medium containing the compounds except the control samples. […] After the incubation period, the samples were washed with PBS and fresh RPMI 1640 medium was added to the samples. The cells were incubated overnight at 37 °C and 5% CO2. The next day, 200 μL of 0.25% Trypsin (Trypsin-Versen) was added to the samples until cells appeared detached followed by the addition of 400 μL of RPMI 1640 medium supplemented with 10% bovine serum. The cells were collected in Eppendorf tubes and centrifuged at 2000g for 2 min. The harvested cells were resuspended in fresh serum-free RPMI 1640 culture medium. After this step, the apoptosis assay was carried out according to the instructions of the manufacturer. The fluorescence was analyzed immediately using a ParTec CyFlow flow cytometer (Partec GmbH, Münster, Germany).
• Apoptosis and DNA binding studies […]

[1] = system: HCT-116 isogenic p53-knock-out subline; assay: MTT assay, 96 h; format: cell-based, human; conditions: read-out: IC50 HCT-116p53ko, mean
Excerpt: (§1) The oncosuppressor protein p53 controls the cellular response to DNA strand breaks induced by cytotoxic drugs or by radiation.[58] The p53 protein may enhance cell chemosensitivity by promoting apoptosis via different mechanisms including activation of proapoptotic genes such as bax and repression of antiapoptotic genes such as bcl-2 or in contrast increase chemoresistance by promoting p21-mediated and p21-independent growth arrest and DNA repair and by activation of antiapoptotic genes such as bcl-x. There is strong evidence that the modulation of drug sensitivity by p53 may be both drug- and cell type-specific.[59] […] Accordingly, essential differences in chemosensitivity were observed between cells with wild-type p53 gene and cells with knocked out p53 gene by homologous recombination.[60]
(§2) Human colonic adenocarcinoma cell lines Colo 205 doxorubicin-sensitive (ATCC-CCL-222) and Colo 320/MDR-LRP multidrug resistant over-expressing ABCB1 (MDR1)-LRP (ATCC-CCL-220.1) were purchased from LGC Promochem, Teddington, UK. The cells were cultured in an RPMI 1640 medium supplemented with 10% heat-inactivated fetal bovine serum, 2 mM L-glutamine, 1 mM Na-pyruvate, and 10 mM HEPES. The semi-adherent human colon cancer cells were detached with Trypsin-Versene (EDTA) solution for 5 min at 37 °C. An MRC-5 human embryonal lung fibroblast cell line (ATCC CCL-171) was purchased from LGC Promochem, Teddington, UK. The cells were cultured in Eagle’s minimal essential medium (EMEM, containing 4.5 g L^–1 glucose) supplemented with a non-essential amino acid mixture, a selection of vitamins, and 10% heat-inactivated fetal bovine serum. The HCT-116 colon carcinoma cells and isogenic p53-knock-out subline were a gift of Prof. Bert Vogelstein from The Johns Hopkins Oncology Center. Cells were cultured in McCoy’s 5A medium supplemented with 10% heat-inactivated fetal bovine serum and 4 mM L-glutamine. All cell lines were incubated at 37 °C, in a 5% CO2, 95% air atmosphere.
(§3) MRC-5 non-cancerous human embryonic lung fibroblast and human colonic adeno-carcinoma cell lines (doxorubicin-sensitive Colo 205 and multidrug resistant Colo 320 colonic adenocarcinoma cells) were used to determine the effect of compounds on cell growth. The effects of increasing concentrations of compounds on cell growth were tested in 96-well flat-bottomed microtiter plates. The compounds were dissolved in DMSO and stock solutions of 10 mM were prepared. These were further diluted in the appropriate cell culture medium by twofold serial dilution starting from 100 or 10 μM for the compounds. The adherent human embryonal lung fibroblast cells were cultured in 96-well flat-bottomed microtiter plates using EMEM supplemented with 10% heat-inactivated fetal bovine serum. The density of the cells was adjusted to 1 × 10^4 cells in 100 μL per well, the cells were seeded for 24 h at 37 °C, 5% CO2, then the medium was removed from the plates containing the cells, and the dilutions of compounds previously made in a separate plate were added to the cells in 200 μL. In the case of the colonic adenocarcinoma cells, the twofold serial dilutions of compounds were prepared in 100 μL of RPMI 1640, horizontally. The semi-adherent colonic adenocarcinoma cells were treated with Trypsin-Versene (EDTA) solution. They were adjusted to a density of 1 × 10^4 cells in 100 μL of RPMI 1640 medium and were added to each well, with the exception of the medium control wells. […]

[2] = system: HCT-116 colon carcinoma cells; assay: MTT assay, 96 h; format: cell-based, human
Excerpt: as §1, §2, §3

In the case of `N.N.[Cl][Pt][Cl]` [cisplatin, reference compound], the “Cell death % Q1” value (Colo320 cells; 15 µM) is reported as 1.64%, the “Early apoptosis % Q3” value (Colo320 cells; 15 µM) is reported as 1.68% and the “Late apoptosis and necrosis % Q2” value (Colo320 cells; 15 µM) is reported as 2.24%. For the same molecule, the “Cell death % Q1” value (Colo320 cells; 30 µM) was 0.79%, the “Early apoptosis % Q3” value (Colo320 cells; 30 µM) was 4.90% and the “Late apoptosis and necrosis % Q2” value (Colo320 cells; 30 µM) was 4.07%. It also gave an IC50 [1] of 1700 nM and an IC50 [2] of 780 nM.
